# Test results from patent US7329638B2, “Drug delivery compositions” (priority 2003, dated 2008).
# Where “and” joins values, the source holds several entries; their conditions need not be identical. Equal entries are not always repeated.
# How the values were obtained:
# [1] = oral administration; cited from earlier work
# [2] = tested on: CT-26 murine adenocarcinoma colon cancer cells; experiment: MTT cytotoxicity in CT-26 cells in log-phase culture; assay type: cell-based; conditions: CT-26, MTT
# Experimental: Various doses of each test compound were added to 96-well culture plates containing approximately 5,000 cells/well. The plates were incubated for 48 hrs at 37° C. under an atmosphere of 5% CO2 in humidified air. Remaining cells were assessed using MTT and compared to untreated control wells. Values shown are means±standard deviation.
# Cytotoxicity was measured as described in FIG. 8.
# Various doses of each compound were added to 96-well culture plates containing approximately 5,000 cells/well. The plates were incubated for 48 hrs at 37° C. under an atmosphere of 5% CO2 in humidified air in an incubator. Test cells were assessed by MTT assay and then compared to untreated cells in control wells. Values are represented as means±standard deviation. Each experiment was performed in triplicate.
# In additional embodiments, the cytotoxicity of gelonin and the TAT-Gel conjugates were examined in CT-26 murine adenocarcinoma colon cancer cells in log-phase culture.
# MCF-7 cells [3] = experiment: Cellular uptake of FITC-labeled gelonin and TAT-Gel (FACS and confocal microscopy); assay type: cell-based; conditions: MCF-7, FITC label, 10 nM, 1 hr at 37° C.
# Experimental: FIGS. 7A-7D show the cellular uptake of TAT and TAT-Gel conjugates into MCF-7 cells. The left two panels provide confocol microphotograph sections of DIC image and corresponding fluorescent images, whereas right panels show FACS results (ordinate, number of cells, abcissa, fluorescent intensity). Cells were treated with FITC-labeled gelonin (FIG. 7A); TAT-Gel (FIG. 7B); TAT-Gel+heparin (FIG. 7C); and TAT-Gel+heparin and then+protamine (FIG. 7D). Protein concentration was adjusted to 10 nM, and the incubation time was 1 hr at 37° C.
# In certain embodiments, the TAT-mediated cell internalization and the cytotoxicity of TAT-Gel were examined in vitro in MCF-7 and CT-26 cell cultures. The membrane-transducing ability of the TAT-Gel conjugates was determined using fluorescence (FITC)-labeled gelonin or TAT-Gel added to the culture media of MCF-7 cells, followed by analysis by both the fluorescence activated cell sorting (FACS) and confocol microscopy. […] On the other hand, almost all of the FITC labels were found inside, and specifically inside the cytosol (see confocol results), of all (˜100%) cells (see the FACS data) within one hour of incubation of the cells with the TAT-Gel conjugates (FIG. 7B). Considering the fact that gelonin exerts its cytotoxic activity via binding with ribosomes and cleaving RNA, this cytosolic localization actually yields beneficial therapeutic affects. […]
# CT26 colon carcinoma = experiment: Tumor regression in CT-26 tumor-bearing mice, intratumoral injection (gelonin series); assay type: in vivo, BALB/c mice
# murine tumor tissues = experiment: Tumor penetration of rhodamine-labeled gelonin and TAT-Gel; assay type: in vivo, mice; conditions: tumors isolated at 10 hrs after injection
# Excerpt: FIGS. 18A and 18B show tumor penetration of rhodamine-labeled TAT-Gel conjugates (FIG. 18A), and free gelonin (FIG. 18B). Tumors were isolated at 10 hrs after injection of the rhodamine-labeled TAT-Gel conjugate or free gelonin and then photographed.
# To further confirm that TAT-Gel conjugates penetrate into tumor tissues, rhodamine-labeled gelonin was used in several additional in vivo studies. […] The extremely efficient tumor penetration and widespread drug distribution capabilities of the compositions and methods of the present invention are of great significance to anticancer therapy.
# CT-26 cells = experiment: Translocation of rhodamine-labeled gelonin by TAT or LMWP (fluorescence microscopy); assay type: cell-based; conditions: CT-26, 2 hrs incubation
# Experimental: FIGS. 15A and 15B show the translocation of gelonin into the CT-26 cells with the aid of: TAT (FIG. 15A); or LMWP (FIG. 15B). Fluorescent microscopy was conducted on cells treated with rhodamine-labeled TAT- or LMWP-gelonin following 2 hrs of incubation in CT-26 cells.
# In some embodiments, studies were preformed to compare the capabilities of LMWP and TAT in protein translocation. In some of these embodiments, the LMWP and TAT peptides were conjugated to gelonin using the PDPH method described herein. To create a -SH group for coupling, LMWP was modified prior to its conjugation by treatment with SPDP and DTT, using the protocol established by J. Carlsson et al., (J. Carlsson et al., Biochem. J., 173:723-737 [1978]). Gelonin was labeled with rhodamine prior to conjugation.
# MCF-7 cells [4] = experiment: Cell translocation and uptake kinetics of FITC-labeled LMWP and TAT; assay type: cell-based
# Experimental: Cells were incubated with the FITC-labeled peptides and then lysed. Fluorescence intensities in the supernatants were measured.
# In some embodiments, purified LMWP was prepared according to the method described in L.C. Chang et al., AAPS PharmSci., 3(2) Article 17 [2001]. In some additional embodiments, cell internalization characteristics of TAT and LMWP were compared by confocol microscopy using FITC-labeled peptides. Like TAT, after 15 min of incubation with MCF-7 cells at 37° C., more than 70% of the FITC-labeled LMWP entered the cytosol of the MCF-7 cells (FIG. 13). […] The reason for the difference in cell localization remains unclear, however, while the present invention is not limited to any particular mechanism, it is contemplated that TAT, which contains the sequence of the nuclear localization signal (NLS) peptide, can penetrate into the cell's nucleus either through pores on the nuclear envelope, or via binding with certain cytoplasmic components which confer nuclear localization. (L. Chaloin et al., Biochem. Biophys. Res. Commun., 243:601-608 [1998]; and M. A. Zanta M A et al., Proc. Natl. Acad. Sci. USA, 96:91-96 [1999]). In some embodiments, the localization of TAT and TAT-like peptides can be directed to the cytoplasm or to other sites within the cell by making altering portions of its amino acid sequence. (See e.g., M. M. Gottesman et al., Nature Reviews Cancer, 2:48-58 [2002]). In some preferred embodiments, the sequence of the PTD component/subcomponent of the drug delivery composition is selected or modified (e.g., amino acid sequence altered) so that the composition and the therapeutic molecule(s) being carried are localized to the cytoplasm. The present invention contemplates that in certain embodiments the localization of the drug delivery compositions to the cytoplasm aids in the penetration of the therapeutic molecules throughout the targeted tissue (e.g., from the tumor periphery to the tumor core).
# FIG. 14 provides a comparison of the rate of cellular uptake of LMWP and TAT. […]
# implanted tumors = experiment: Tumor regression in tumor-bearing mice, intratumoral injection (RNase series); assay type: in vivo; conditions: excised thirty days (4 weeks) after initial treatment
# Experimental: Drugs were administered by intratumoral injection. Injections were started 3 weeks after tumor cell implantation when tumors reached the size about 100 mm^3. Thirty days after initial treatment, mice were sacrificed and their tumors were excised, weighed, and photographed.
# For example, in test animals an average tumor weight of 2.92±0.47 g (N=5) was observed 4 weeks after treatment (Lane 4; FIG. 11B) that was statistically indistinguishable from the value of 3.16±0.65 g (Lane 2 in FIG. 11B) of the control group without treatment. […] The addition of protamine to the heparin-inhibited TAT-RNase conjugates completely reversed inhibition and tumor growth was regressed to an insignificant weight of 0.09±0.05 g (Lane 5; FIG. 11B).
# MCF7/ADR cells = experiment: MTT cytotoxicity and drug accumulation in doxorubicin resistant MCF7/ADR cells; assay type: cell-based; conditions: for IC50: Homo sapiens, NCI/ADR-RES, 48 h, MCF7/ADR, 48 hrs exposure, MTT
# Experimental: In some embodiments, monolayer doxorubicin sensitive (MCF7) and resistant (MCF7/ADR) cells were then exposed to either doxorubicin or TAT-Dox conjugates at various concentrations (up to 100 μM) for 48 hrs in the presence or absence of 10 μM verapamil. Cell viability was measured by MTT assay. […] Verapamil, a P-glycoprotein inhibitor, was able to restore most of the cytotoxic activities of free doxorubicin.
compound,measurement,setting,value
"N[C@@H](Cc1ccc(O)c(O)c1)C(=O)O [levodopa, L-3,4-dihydroxy-phenylalanine]",fraction that penetrates the CNS,[1],less than 1%
gelonin,cytotoxicity / inhibition of cell growth (in words),[2],did not induce cell death
same,cytotoxicity / inhibition of cell growth (in words),[2]; listed as Gelonin,did not display any detectable inhibition on cell growth
same,"cellular uptake (confocal and FACS, in words)",MCF-7 cells [3],virtually no cellular uptake
same,average tumor mass,"CT26 colon carcinoma; excised thirty days (four weeks) after initial treatment, intratumoral, 9 treatments",2.63 ± 0.5 g and 2.62 ± 0.53 g
same,gross appearance of tumor after treatment,CT26 colon carcinoma; two and four weeks after intratumoral injection,not cytotoxic to the tumor
same,tumor penetration (rhodamine staining of excised tumor),murine tumor tissues,virtually no staining or only sporadic weak staining
TAT: highly cationic 11 amino acid section of the TAT-peptide (YGRKKRRQRRR; SEQ ID NO:6),translocation of rhodamine-labeled gelonin into cells,CT-26 cells,capable of translocating gelonin
same,rate of cellular uptake (comparison in words),MCF-7 cells [4]; MCF-7,slightly faster cellular uptake than LMWP
same,incubation time at which cellular concentration reached a maximum,"MCF-7 cells [4]; MCF-7, FITC-labeled peptides",30 min
same,subcellular localization,"MCF-7 cells [4]; MCF-7, after 30 min incubation",primarily localizes in the nucleus
RNase,average tumor mass,implanted tumors,2.92 ± 0.47 g
"COc1cccc2c1C(=O)c1c(O)c3c(c(O)c1C2=O)C[C@@](O)(C(=O)CO)C[C@@H]3O[C@H]1C[C@H](N)[C@H](O)[C@H](C)O1 [Dox, doxorubicin]",IC50,MCF7/ADR cells; Verapamil (10 μM),6.7 µM
same,IC50,MCF7/ADR cells; without verapamil,45.2 µM
same,IC50 of free doxorubicin relative to Dox-TAT conjugates,MCF7/ADR cells; MCF7/MDR cells,~8 fold
same,amount of doxorubicin seen in cells by fluorescence microscopy,MCF7/ADR cells; MDR cells,negligible amount
